Test results from PubChem BioAssay AID1845207 (Molecular Pharmacology Branch, DTP, NCI, 2023).

Tested on: NCI-H1876 tumor spheroid viability
Experiment: Anticancer human tumor NCI-H1876 cell line growth inhibition;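 further: spheroids exposed to compounds for seven days before the viability read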;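 on viability, T/C: percent of DMSO vehicle control viability so 100% = vehicle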
Conditions: spheroids with HUVEC and MSC; for IC50: curve of first compound; for viability, T/C: stronger effect = lower value; active means viability on the fitted dose curve at most 10% of control; inactive means the rest
From the text: Multicellular complex tumor spheroid response to DNA repair inhibitors in combination with DNA-damaging drugs
This study explores the anticancer activities of DNA-damaging drugs and inhibitors of DNA damage repair, both as single agents and in combinations. Complex tumor spheroids comprised of malignant cells, endothelial cells and mesenchymal stem cells served as an in vitro model for human solid tumors. This model system incorporates physiologically relevant features and patient-derived or established malignant cell lines with clinically relevant genetic alterations from many tumor types. Twenty-six patient-derived or established malignant cell lines were evaluated representing sarcoma, melanoma, small cell lung cancer (SCLC), non-small cell lung cancer (NSCLC), as well as bladder, ovarian and pancreatic cancers. The concentration ranges selected for each drug and investigational agent were based upon clinically achievable concentrations if the clinical Cmax of the agent was known.
Compounds. The drugs and compounds olaparib (NSC753686), talazoparib (NSC767125), berzosertib (NSC777718), elimusertib (NSC800525), nedisertib (NSC802822), VX-984 (NSC792969), AZD-1390 (NSC803789), temozolomide (NSC362856), topotecan (NSC609699), trabectedin (NSC813783), staurosporine (NSC755774), and gemcitabine (NSC613327) were obtained from the National Cancer Institute (NCI) Developmental Therapeutics Program Chemical Repository. The FDA-approved anticancer drug set is available from the Developmental Therapeutics Program at https://dtp.cancer.gov/organization/dscb/obtaining/available_plates.htm. […] The stock solutions were prepared in dimethyl sulfoxide (DMSO, Sigma-Aldrich, St. Louis, MO, cat. D2650) at 400-fold the tested concentration and stored at -70 degrees C. Prior to their use, the stock solutions were diluted in fresh medium and the final DMSO concentration in the assay was 0.25% (v/v). All drugs and investigational agents were tested over a range starting from a high concentration at or near the clinical Cmax and decreasing in half-log increments. If the clinical Cmax for an agent had not been determined, the highest concentration tested was 10 microM.
Cell Lines. The patient-derived cancer cell (PDC) lines: 156681-154-R-J1-PDC, 283228-195-R-J1-PDC, 287954-098-R-J1-PDC, 292921-168-R-J2-PDC, 349418-098-R-PDC, 425362-245-T-J1-PDC, 556581-035-R-J1-PDC, and BL0293-F563-PDC were received from the NCI Patient-Derived Models Repository (PDMR, https://pdmr.cancer.gov). The established cell lines HS-SY-2 (RRID:CVCL_8719), MPNST, and SYO-1 (RRID:CVCL_7146) were obtained from the Sloan Kettering Institute. The alveolar soft parts sarcoma cell line ASPS-1 (RRID:CVCL_S738) was established at the NCI and grown from internal seed stocks. The following established cell lines were purchased from the American Type Culture Collection (ATCC, Manassas, VA): G-401 (ATCC, cat. CRL-1441, RRID:CVCL_0270), SW982 (ATCC, cat. HTB-93, RRID:CVCL_1734), VA-ES-BJ (ATCC, cat. CRL-2138, RRID:CVCL_1785), NCI-H719 (ATCC, cat. CRL-5837, RRID:CVCL_1582), NCI-H196 (ATCC, cat. CRL-5823, RRID:CVCL_1509), NCI-H841 (ATCC, cat. CRL-5845, RRID:CVCL_1595), NCI-H1618 (ATCC, cat. CRL-5879, RRID:CVCL_1480), NCI-H1876 (ATCC, cat. CRL-5902, RRID:CVCL_1503), DMS 114 (ATCC, cat. CRL-2066; RRID:CVCL_1174), NCI-H211 (ATCC, cat. CRL-5824; RRID:CVCL_1529), and SW 1271 (ATCC, cat. CRL-2177, RRID:CVCL_1716). The small cell lung cancer cell line COR-L88 was purchased from Sigma-Aldrich (cat. 92031917-1VL, RRID:CVCL_1141). The non-small cell lung cancer cell lines NCI-H226 (RRID:CVCL_1544) and NCI-H322M (RRID:CVCL_1557) were established at the NCI and grown from internal seed stocks. Pooled donor human umbilical vein endothelial cells (HUVEC, Lonza, cat. CC-2519) and human mesenchymal stem cells (hMSC, Lonza, cat. PT-2501) were purchased from Lonza (Walkersville, MD).
Cell Culture. All cells were maintained in an incubator at 37 degrees C and 5% CO2 with 95% humidity. […]

Cc1sc2c(c1C)C(c1ccc(Cl)cc1)=NC(CC(=O)Nc1ccc(O)cc1)c1nnc(C)n1-2 (stereo not given) + COc1cc2c(cc1O)CCNC21CSC2c3c(OC(C)=O)c(C)c4c(c3C(COC1=O)N1C(O)C3Cc5cc(C)c(OC)c(O)c5C(C21)N3C)OCO4
265 nM: IC50 (second compound 30 pM)
148 nM: IC50 (second compound 94.9 pM)
active: viability, T/C (second compound 94.9 pM, first compound 3 µM) 5.87% | viability, T/C (second compound 0.0003 µM, first compound 0.3 µM) 4.78% | viability, T/C (second compound 0.0003 µM, first compound 0.949 µM) 2.87% | viability, T/C (second compound 0.0003 µM, first compound 3 µM) 3.05% | viability, T/C (second compound 0.000949 µM, first compound 0.00949 µM) 3.88% | viability, T/C (second compound 0.000949 µM, first compound 0.03 µM) 2.86% | viability, T/C (second compound 0.000949 µM, first compound 0.0949 µM) 1.98% | viability, T/C (second compound 0.000949 µM, first compound 0.3 µM) 2.62% | viability, T/C (second compound 0.000949 µM, first compound 0.949 µM) 1.67% | viability, T/C (second compound 0.000949 µM, first compound 3 µM) 2.3% | viability, T/C (second compound 0.003 µM, first compound 0.00949 µM) 0.46% | viability, T/C (second compound 0.003 µM, first compound 0.03 µM) 0.43% | viability, T/C (second compound 0.003 µM, first compound 0.0949 µM) 0.51% | viability, T/C (second compound 0.003 µM, first compound 0.3 µM) 0.57% | viability, T/C (second compound 0.003 µM, first compound 0.949 µM) 0.25% | viability, T/C (second compound 0.003 µM, first compound 3 µM) 0.65%
< 9.49 nM: IC50 (second compound 0.0003 µM) | IC50 (second compound 0.000949 µM) | IC50 (second compound 0.003 µM)
inactive: viability, T/C (second compound 30 pM, first compound 0.00949 µM) 104% | viability, T/C (second compound 30 pM, first compound 0.03 µM) 108% | viability, T/C (second compound 30 pM, first compound 0.0949 µM) 104% | viability, T/C (second compound 30 pM, first compound 0.3 µM) 43.3% | viability, T/C (second compound 30 pM, first compound 0.949 µM) 17.1% | viability, T/C (second compound 30 pM, first compound 3 µM) 8.32% | viability, T/C (second compound 94.9 pM, first compound 0.00949 µM) 100% | viability, T/C (second compound 94.9 pM, first compound 0.03 µM) 95.4% | viability, T/C (second compound 94.9 pM, first compound 0.0949 µM) 60.6% | viability, T/C (second compound 94.9 pM, first compound 0.3 µM) 30.8% | viability, T/C (second compound 94.9 pM, first compound 0.949 µM) 9.48% | viability, T/C (second compound 0.0003 µM, first compound 0.00949 µM) 29.3% | viability, T/C (second compound 0.0003 µM, first compound 0.03 µM) 23.2% | viability, T/C (second compound 0.0003 µM, first compound 0.0949 µM) 22.7%
